How the values were obtained:
KCNQ2/3 channels = biological target: T1, KCNQ2/3 channels (Homo sapiens, UniProt O43525+O43526); experiment: Fluorescence assay using a voltage sensitive dye (fluorimetry); type: cell-based; details: CHO-K1 cells expressing KCNQ2/3 channels; for Emax: relative to retigabine = 100%, read-out: Fluorimetry % efficacy (retigabine = 100%)
T1 construct: expressed in transfected cells; host or cells: CHO-K1
Procedure: Method I. Fluorescence Assay Using a Voltage Sensitive Dye (Fluorimetry)
[…] CHO-K1 cells expressing KCNQ2/3 channels are cultivated adherently at 37° C., 5% CO2 and 95% humidity in cell culture bottles (e.g. 80 cm^2 TC flasks, Nunc) with DMEM-high glucose (Sigma Aldrich, D7777) including 10% FCS (PAN Biotech, e.g. 3302-P270521) or alternatively MEM Alpha Medium (1×, liquid, Invitrogen, #22571), 10% fetal calf serum (FCS) (Invitrogen, #10270-106, heat-inactivated) and the necessary selection antibiotics.
Before being sown out for the measurements, the cells are washed with 1×DPBS buffer Ca^2+/Mg^2+-free (e.g. Invitrogen, #14190-094) and detached from the bottom of the culture vessel by using Accutase (PAA Laboratories, #L11-007) (incubation with Accutase for 15 min at 37° C.). The cell number is determined using a CASY™ cell counter (TCC, Schärfe System). Depending on the optimal density for each individual cell line, 20,000-30,000 cells/well/100 μl are seeded onto 96-well Corning™ CellBIND™ assay plates (Flat Clear Bottom Black Polystyrene Microplates, #3340). Freshly seeded cells are then left to settle for one hour at room temperature, followed by incubation for 24 hours at 37° C., 5% CO2 and 95% humidity.
The voltage-sensitive fluorescent dye from the Membrane Potential Assay Kit (Red™ Bulk format part R8123 for FLIPR, MDS Analytical Technologies™) is prepared by dissolving the contents of one vessel Membrane Potential Assay Kit Red Component A in 200 ml of extracellular buffer (ES buffer, 120 mM NaCl, 1 mM KCl, 10 mM HEPES, 2 mM CaCl2, 2 mM MgCl2, 10 mM glucose; pH 7.4). After removal of the nutrient medium, the cells are washed once with 200 μl of ES buffer, then loaded for 45 min at room temperature in 100 μl of dye solution in the dark.
Fluorescence measurements are carried out in a BMG Labtech FLUOstar™, BMG Labtech NOVOstar™ or BMG Labtech POLARstar™ instrument (525 nm excitation, 560 nm emission, Bottom Read mode). After incubation with the dye, 50 μl of the test substances in the desired concentrations, or 50 μl of ES buffer for control purposes, are applied to the wells of the assay plate and incubated for 30 min at room temperature while being shielded from light. The fluorescence intensity of the dye is then measured for 5 min and the fluorescence value F1 of each well is thus determined at a given, constant time. 15 μl of a KCl solution are then added to each well (final concentration of potassium ions 92 mM). The change in fluorescence intensity is subsequently monitored until all the relevant values have been obtained (mainly 5-30 min). At a given time post KCl application, a fluorescence value F2 is determined, in this case at the time of the fluorescence peak.
For calculation, the fluorescence intensity F2 is corrected for the fluorescence intensity F1, and the activity (ΔF/F) of the target compound on the potassium channel is determined as follows:
In order to determine whether a substance has agonistic activity,
[formula] can be related to
[formula] of control wells.
[formula] is determined by adding to the well only the buffer solution instead of the test substance, determining the value F1K of the fluorescence intensity, adding the potassium ions as described above, and measuring a value F2K of the fluorescence intensity. F2K and F1K are then calculated as follows: […]
A substance has an agonistic activity on the potassium channel if
[formula] is greater than
Independently of the comparison of
[formula] it is possible to conclude that a target compound has agonistic activity if
[formula] increases dose dependently.
Calculations of EC50 and IC50 values are carried out with the aid of ‘Prism v4.0’ software (Graph Pad Software™).

[1] = tested on: withdrawal reflex of the rat tail (tail flick) in response to a radiant heat beam; experiment: Low-intensity tail flick test (rat); type: in vivo; details: po, peroral; for ED50: at time of maximum efficacy; for inhibition in vivo at 6.81 mg/kg / inhibition in vivo at 10 mg/kg: read-out: Low intensity tail flick, rat, peroral, MPE (dose)
Procedure: Method II. Low-Intensity Tail Flick Test (Rat)
In the low-intensity tail flick test, the determination of the antinociceptive effect of the compounds according to the invention towards an acute noxious thermal stimulus is carried out by measuring the withdrawal reflex of the rat tail (tail flick) in response to a radiant heat beam (analgesia meter; model 2011 of the company Rhema Labortechnik, Hofheim, Germany) according to the method described by D'Amour and Smith (J. Pharm. Exp. Ther. 72, 74 79 (1941). To this end, the rats were placed in a plexiglas restrainer, and a low-intensity radiant heat beam (48° C.) was focused onto the dorsal surface of the tail root. The stimulus intensity was adjusted to result in a mean pre-drug control withdrawal latency of about 7 s, thus also allowing a supraspinal modulation of the spinally mediated acute nociceptive reflex. A cutoff time of 30 s was applied to avoid tissue damage. Male Sprague-Dawley rats (Janvier, Le Genest St. Isle, Frankreich) with weights of 200-250 g were used. 10 rats were used per group. Before administration of a compound according to the invention, the animals were pre-tested twice in the course of five minutes and the mean of these measurements was calculated as the pre-test mean. The antinociceptive effect was determined at 20, 40 and 60 min after peroral compound administration. The antinociceptive effect was calculated based on the increase in the tail withdrawal latency according to the following formula and is expressed as percentage of the maximum possible effect (MPE [%]): MPE=[(T1−T0)/(T2−T0)]*100
In this, T0 is the control latency time before and T1 the latency time after administration of the compound, T2 is the cutoff time and MPE is the maximum possible effect. Employing variant analysis (repeated measures ANOVA) allowed testing of statistically significant differences between the compounds according to the invention and the vehicle group. The significance level was set to p≦0.05. To determine the dose dependency, the particular compound according to the invention was administered in 3-5 logarithmically increasing doses, including a threshold dose and a maximum effective dose, and the ED50 values were determined with the aid of regression analysis. The ED50 calculation was performed at the time of maximum efficacy (usually 20 min after administration of the compounds).

Row | Compound | EC50 (KCNQ2/3 channels) | Emax (KCNQ2/3 channels) | ED50 [1] | inhibition in vivo at 6.81 mg/kg [1] | inhibition in vivo at 10 mg/kg [1]
1 | Cc1c(C(=O)NCc2cccc(F)c2)c(OC(C)C)nc2cc(C(F)(F)F)ccc12 [Example 10, N-[(3-fluorophenyl)-methyl]-2-isopropoxy-4-methyl-7-(trifluoromethyl)-quinoline-3-carboxylic acid amide] | 87 nM | 175% | 3.8 mg/kg |  | 
2 | COc1nc2cc(C(F)(F)F)ccc2c(C)c1C(=O)NCc1ccc(F)cc1 [Example 5, N-[(4-fluorophenyl)-methyl]-2-methoxy-4-methyl-7-(trifluoromethyl)-quinoline-3-carboxylic acid amide] | 57 nM | 122% |  | 34% | 
3 | COc1nc2cc(C(F)(F)F)ccc2c(OC)c1C(=O)NCc1ccc(F)cc1 [Example 16, N-[(4-fluorophenyl)-methyl]-2,4-dimethoxy-7-(trifluoromethyl)-quinoline-3-carboxylic acid amide] | 106 nM | 159% |  |  | 74%
4 | CCOc1nc2cc(C#N)ccc2c(C)c1C(=O)NCc1ccc(F)cc1 [Example 35, 7-cyano-2-ethoxy-N-[(4-fluorophenyl)-methyl]-4-methyl-quinoline-3-carboxylic acid amide] | 82 nM | 112% |  | 32% | 
5 | COc1nc2cc(C(F)(F)F)ccc2c(C)c1C(=O)NCCCC(C)(C)C [Example 29, N-(4,4-dimethyl-pentyl)-2-methoxy-4-methyl-7-(trifluoromethyl)-quinoline-3-carboxylic acid amide] | 28 nM | 244% |  |  | 28%
6 | COc1nc2cc(C(F)(F)F)ccc2c(OC)c1C(=O)NCc1cccc(F)c1 [Example 13, N-[(3-fluorophenyl)-methyl]-2,4-dimethoxy-7-(trifluoromethyl)-quinoline-3-carboxylic acid amide] | 136 nM | 147% |  |  | 10%
7 | CCOc1nc2cc(C(F)(F)F)ccc2c(C)c1C(=O)NCc1ccc(F)c(C)c1 [Example 24, 2-ethoxy-N-[(4-fluoro-3-methyl-phenyl)-methyl]-4-methyl-7-(trifluoromethyl)-quinoline-3-carboxylic acid amide] | 53 nM | 108% |  | 17% | 
8 | COc1nc2cc(C(F)(F)F)ccc2c(C)c1C(=O)NCc1cccc(F)c1 [Example 4, N-[(3-fluorophenyl)-methyl]-2-methoxy-4-methyl-7-(trifluoromethyl)-quinoline-3-carboxylic acid amide] | 73 nM | 105% | 6.7 mg/kg |  | 
9 | Cc1c(C(=O)NCc2cccc(F)c2)c(OCC(F)(F)F)nc2cc(C(F)(F)F)ccc12 [Example 50, N-[(3-fluorophenyl)-methyl]-4-methyl-2-(2,2,2-trifluoro-ethoxy)-7-(trifluoromethyl)-quinoline-3-carboxylic acid amide] | 25 nM | 108% |  |  | 24%
10 | COCCOc1nc2cc(C(F)(F)F)ccc2c(C)c1C(=O)NCc1cccc(F)c1 [Example 7, N-[(3-fluorophenyl)-methyl]-2-(2-methoxy-ethoxy)-4-methyl-7-(trifluoromethyl)-quinoline-3-carboxylic acid amide] | 96 nM | 92% | 10 mg/kg |  | 
11 | CCOc1nc2cc(C(F)(F)F)ccc2c(C)c1C(=O)NCc1ccc(C)c(F)c1 [Example 20, 2-ethoxy-N-[(3-fluoro-4-methyl-phenyl)-methyl]-4-methyl-7-(trifluoromethyl)-quinoline-3-carboxylic acid amide] | 72 nM | 146% |  |  | 24%
12 | CCOc1nc2cc(C(F)(F)F)ccc2c(C)c1C(=O)NCc1ccc(F)cc1 [Example 3, 2-ethoxy-N-[(4-fluorophenyl)-methyl]-4-methyl-7-(trifluoromethyl)-quinoline-3-carboxylic acid amide] | 39 nM | 122% | 2.5 mg/kg |  | 
13 | COc1ccc(F)cc1CNC(=O)c1c(OC)nc2cc(C(F)(F)F)ccc2c1C [Example 41, N-[(5-fluoro-2-methoxy-phenyl)-methyl]-2-methoxy-4-methyl-7-(trifluoromethyl)-quinoline-3-carboxylic acid amide] | 1540 nM | 140% |  |  | 
14 | COc1nc2cc(C(F)(F)F)ccc2c(C)c1C(=O)NCc1ccc(O)c(F)c1 [Example 45, N-[(3-fluoro-4-hydroxy-phenyl)-methyl]-2-methoxy-4-methyl-7-(trifluoromethyl)-quinoline-3-carboxylic acid amide] | 2060 nM | 87% |  |  | 
15 | CCOc1nc2cc(C(F)(F)F)ccc2c(C)c1C(=O)NCCCC(C)C [Example 27, 2-ethoxy-4-methyl-N-(4-methyl-pentyl)-7-(trifluoromethyl)-quinoline-3-carboxylic acid amide] | 84 nM | 173% |  |  | 
16 | CCOc1nc2cc(C(F)(F)F)ccc2c(C)c1C(=O)NCCCC(C)(C)C [Example 30, N-(4,4-dimethyl-pentyl)-2-ethoxy-4-methyl-7-(trifluoromethyl)-quinoline-3-carboxylic acid amide] | 50 nM | 214% |  |  | 
17 | COc1nc2cc(F)ccc2c(C)c1C(=O)NCc1cccc(F)c1 [Example 18, 7-fluoro-N-[(3-fluorophenyl)-methyl]-2-methoxy-4-methyl-quinoline-3-carboxylic acid amide] | 340 nM | 62% |  |  | 
18 | COc1nc2cc(C(F)(F)F)ccc2c(C)c1C(=O)NCc1cccc(C)c1 [Example 21, 2-methoxy-4-methyl-N-(m-tolyl-methyl)-7-(trifluoromethyl)-quinoline-3-carboxylic acid amide] | 67 nM | 71% |  |  | 
19 | COc1nc2cc(C#N)ccc2c(C)c1C(=O)NCc1ccc(F)cc1 [Example 38, 7-cyano-N-[(4-fluorophenyl)-methyl]-2-methoxy-4-methyl-quinoline-3-carboxylic acid amide] | 143 nM | 74% |  |  | 

Reference: patent US9073862B2, “Substituted 2-oxy-quinoline-3-carboxamides as KCNQ2/3 modulators” (Grünenthal GmbH, priority 2010, dated 2015)
